{
  "source": "patent US8536091B2",
  "about": "“System for protection of plants from pathogens using alkamides” (priority 2008, dated 2013)",
  "origin": "cited, not measured here",
  "test_system": "microbial plant pathogens, including bacteria and fungi",
  "details": "in the absence of plants; relatively high levels",
  "data": [
    {"smiles": "C/C=C/C=C\\CC/C=C/C(=O)NCC(C)C", "note": "[affinin, N-isobutyl-deca-2E,6Z,8E-trieneamide]", "values": [
      {"measurement": "in vitro growth inhibition of microbial plant pathogens", "value": "inhibit the growth of some microbial plant pathogens"}
    ]}
  ]
}
